Data taken from paper PMC6523382 (Pharmaceutics, 2019).
Read-outs that look alike come from different tables or passages of the source. One block for each molecule: values may come before it.

Columns and labels:
[1] = tested on: rat duodenal, jejunal, and ileal segments; experiment: Intestinal absorptive permeability in Ussing chambers; type: in vitro ADME
Procedure: [31]. Briefly, duodenum, jejunum, and ileum segments were dissected and washed as described earlier. The duodenal, jejunal, and ileal segments mounted on the inserts of the Ussing chambers ([…], Holliston, MA, USA) were acclimatized with HBSS for 30 min. […] Aliquots (400 μL) of HBSS in the basal side were withdrawn at 0, 30, 60, 90, and 120 min, and the withdrawn samples were compensated with an equal volume of fresh, preheated HBSS. Carbogen gas (5% CO2/ 95% O2) was bubbled into the Ussing chambers at a rate of 150 drops/min during the experiment. […] For the generation of Na^+ gradient, rat duodenal, jejunal, and ileal segments mounted on the inserts of the Ussing chamber were pretreated with Na^+ free media comprising 10 mM HEPES, 5 mM Tris, 140 mM choline chloride, 2 mM KCl, 1 mM CaCl2, and 1 mM MgCl2 (pH7.4) for 30 min. […] A 100 μL aliquot of samples was transferred to 96-well plates and the fluorescence of Lucifer yellow was read directly in a fluorescence plate reader using a 485 nm excitation and an emission filter of 535 nm.

[2] = Ginsenoside concentrations in rat plasma after oral RGE; type: in vivo
Procedure: Ginsenoside concentrations in RGE and plasma samples were analyzed using an Agilent 6470 triple quadrupole liquid chromatography–tandem mass spectrometry (LC–MS/MS) system (Agilent, Wilmington, DE, USA) equipped with an Agilent 1260 high performance liquid chromatography (HPLC) system, according to a previously published method. […] Aliquots (20 μL) of the supernatant were injected into the LC–MS/MS system for the analysis of ginsenosides. […] The solvent gradient program was as follows: (1) 0–0.5 min, 72% B; (2) 0.5–8.5 min, 84% B; (3) 8.5–19.0 min, 72%.
Quantification of a separated ginsenoside peak was performed at m/z 1131.6 → 365.1 for Rb1 (TR (retention time) 5.0 min), m/z 1101.6 → 335.1 for Rb2 (TR 6.4 min) and Rc (TR 5.2 min), m/z 969.9 → 789.5 for Rd (TR 8.2 min) and Re (TR 1.6 min), m/z 824 → 643.6 for Rg1 (TR = 1.7 min), m/z 807.5 → 365.1 for Rg3 (TR 12.3 min), m/z 661.5 → 203.1 for Rh1 (TR 3.2 min) and F1 (TR 3.9 min), m/z 587.4 → 407.4 for Rh2 (TR 11.5 min), m/z 807.5 → 627.5 for F2 (TR 5.3 min), m/z 645.5 → 203.1 for compound K (TR 9.5 min), m/z 425.4 → 109.1 for protopanaxadiol (TR 18.8 min), m/z 441.3 → 109.1 for protopanaxatriol (TR 2.9 min), and m/z 336.1 → 320 for berberine (internal standard, IS) (TR 3.7 min) in the positive ionization mode with collision energy (CE) of 15–65 eV.

[3] = parameters: method as in PMID 26869413; settings: cited from earlier work
[4] = Pharmacokinetics of metformin after oral administration in rats; settings: metformin 50 mg/kg PO, rat; for AUC(0-t): AUC24h
Procedure: (§1) Aliquots of plasma (20 µL) and urine (50 µL) samples were vigorously mixed with 200 μL methanol containing 20 ng/mL propranolol (internal standard, IS) for 10 min.
(§2) Samples were eluted through a Synergy Polar RP column (2.0 mm × 150 mm, 4 µm particle size, Phenomenex, Torrence, CA, USA) using a mobile phase that consisted of methanol and water (70:30, v/v) with 0.1% formic acid at a flow rate of 0.2 mL/min. […] Pharmacokinetic parameters were evaluated from plasma concentration versus time curves by using non-compartment analysis of WinNonlin (version 5.1; Pharsights, Cary, NC, USA).

[5] = Pharmacokinetics of metformin after intravenous injection in rats; settings: rat; for Ae24h (fraction of dose excreted in urine for 24 h as parent form) / AUC(0-t) / AUC(0-inf) / MRT: metformin […] IV; for AUC(0-t) / AUC(0-inf) / C0 / MRT: plasma, iv; for AUC(0-t): AUC24h; for C0: C0, metformin […] IV
Procedure: An aliquot (50 µL) of urine samples was stored at −80 °C for the analysis.
as §1, §2

[6] = plasma, po, 50 mg/kg, 1WRA of RGE 1.5 g/kg/day
[7] = plasma, po, 50 mg/kg, SA of RGE 1.5 g/kg

Molecule: CO[C@@H]([C@H](O)[C@H](O)CO)[C@@H](O)C=O [3-O-methyl-D-glucose]
Intestinal absorptive permeability (Papp), effect of RGE ([1]; 50 µM, duodenum, jejunum, ileum, SA and 1WRA groups vs control): not affected

Molecule: CC(C)=CCC[C@](C)(O[C@@H]1O[C@H](CO[C@@H]2O[C@H](CO)[C@@H](O)[C@H](O)[C@H]2O)[C@@H](O)[C@H](O)[C@H]1O)[C@H]1CC[C@]2(C)[C@@H]1[C@H](O)C[C@@H]1[C@@]3(C)CC[C@H](O[C@@H]4O[C@H](CO)[C@@H](O)[C@H](O)[C@H]4O[C@@H]4O[C@H](CO)[C@@H](O)[C@H](O)[C@H]4O)C(C)(C)[C@@H]3CC[C@]12C [Rb1]
concentration at 2 h ([2]; rat, plasma, 2 h after single oral administration of RGE (1.5 g/kg), read-out: Concentration in rat plasma, SA): 14.3 ± 2.7 ng/mL
concentration at 24 h ([2]; rat, plasma, 24 h after last dose of 1-week repeated oral RGE (1.5 g/kg/day), read-out: Concentration in rat plasma, 1WRA): 35.7 ± 1.9 ng/mL

Molecule: Lucifer yellow
Intestinal absorptive permeability (Papp), effect of RGE [1]: not altered

Further lines, with some results ahead:

Concentration in rat plasma, SA ([2]; 2 h after single oral administration of RGE (1.5 g/kg)): 6.3 ± 2.1 ng/mL
Concentration in rat plasma, 1WRA ([2]; 24 h after last dose of 1-week repeated oral RGE (1.5 g/kg/day)): 29.4 ± 1.5 ng/mL
Molecule: CC(C)=CCC[C@](C)(O[C@@H]1O[C@H](CO[C@@H]2OC[C@H](O)[C@H](O)[C@H]2O)[C@@H](O)[C@H](O)[C@H]1O)[C@H]1CC[C@]2(C)[C@@H]1[C@H](O)C[C@@H]1[C@@]3(C)CC[C@H](O[C@@H]4O[C@H](CO)[C@@H](O)[C@H](O)[C@H]4O[C@@H]4O[C@H](CO)[C@@H](O)[C@H](O)[C@H]4O)C(C)(C)[C@@H]3CC[C@]12C [Rb2]

Ae24h (fraction of dose excreted in urine for 24 h as parent form) ([4]; 1WRA of RGE 1.5 g/kg/day): 66.29 ± 10.57 %
Tmax ([4]; 1WRA of RGE 1.5 g/kg/day): 2.00 ± 0.01 h
Ae24h (fraction of dose excreted in urine for 24 h as parent form) ([4]; Control): 54.56 ± 3.26%
Ae24h (fraction of dose excreted in urine for 24 h as parent form) ([4]; SA of RGE 1.5 g/kg): 53.04 ± 3.69%
AUC(0-t) [4, 6]: 57600 ± 4990 ng·h/mL
AUC(0-t) ([4]; plasma, po, 50 mg/kg, Control): 44300 ± 8310 ng·h/mL
AUC(0-t) [4, 7]: 45200 ± 11100 ng·h/mL
AUC(0-inf) [4, 6]: 59000 ± 5170 ng·h/mL
AUC(0-inf) ([4]; plasma, po, 50 mg/kg, Control): 44800 ± 8090 ng·h/mL
AUC(0-inf) [4, 7]: 45700 ± 11200 ng·h/mL
Cmax [4, 6]: 9900 ± 1490 ng/mL
Cmax ([4]; plasma, po, 50 mg/kg, Control): 6310 ± 1680 ng/mL
Cmax [4, 7]: 6470 ± 2000 ng/mL
MRT [4, 6]: 4.64 ± 0.68 h
MRT ([4]; plasma, po, 50 mg/kg, Control): 4.85 ± 0.58 h
MRT [4, 7]: 4.69 ± 0.33 h
Tmax ([4]; plasma, po, 50 mg/kg, Tmax, Control): 2.4 ± 0.89 h
Ae24h (fraction of dose excreted in urine for 24 h as parent form) ([5]; 1WRA of RGE 1.5 g/kg/day): 79.56 ± 5.02%
Ae24h (fraction of dose excreted in urine for 24 h as parent form) ([5]; Control): 80.07 ± 4.93%
Ae24h (fraction of dose excreted in urine for 24 h as parent form) ([5]; SA of RGE 1.5 g/kg): 83.52 ± 5.72%
AUC(0-t) ([5]; 1WRA of RGE 1.5 g/kg/day): 980 ± 362 ng·h/mL
AUC(0-t) ([5]; SA of RGE 1.5 g/kg): 1050 ± 237 ng·h/mL
AUC(0-inf) ([5]; 1WRA of RGE 1.5 g/kg/day): 986 ± 364 ng·h/mL
AUC(0-inf) ([5]; SA of RGE 1.5 g/kg): 1050 ± 239 ng·h/mL
C0 ([5]; 1WRA of RGE 1.5 g/kg/day): 1760 ± 438 ng/mL
C0 ([5]; SA of RGE 1.5 g/kg): 1670 ± 623 ng/mL
MRT ([5]; 1WRA of RGE 1.5 g/kg/day): 0.85 ± 0.35 h
MRT ([5]; SA of RGE 1.5 g/kg): 0.81 ± 0.17 h
Molecule: CN(C)C(=N)N=C(N)N [metformin, Metformin]
Fraction of dose absorbed in the duodenum [3]: Approximately 20%
Fraction of dose absorbed in the jejunum and ileum [3]: 60%
